{
  "source": "patent US20130244874A1",
  "about": "“Waterless Composition Comprising Pesticide and Copolymers with Sulfonic Acid Groups” (BASF SE, priority 2010, published 2013)",
  "origin": "cited, not measured here",
  "data": [
    {"smiles": "CC(C)CCCCCCOC(=O)C1CCCCC1C(=O)OCCCCCCC(C)C", "note": "(stereo not shown) [Solvent C, Diisononyl 1,2-cyclohexanedicarboxylate]", "values": [
      {"measurement": "water-soluble", "setting": "solvent, temperature not given", "result": "< 0.02", "unit": "mg/L"}
    ]},
    {"smiles": "O=C1CCCO1", "note": "[Solvent G, gamma-butyrolactone]", "values": [
      {"measurement": "miscibility with water", "setting": "solvent", "result": "infinitely miscible with water"}
    ]},
    {"smiles": "C[S+](C)[O-]", "note": "[Solvent E, DMSO]", "values": [
      {"measurement": "miscibility with water", "setting": "solvent", "result": "infinitely miscible with water"}
    ]},
    {"smiles": "Cn1cc(C(=O)Nc2ccccc2-c2cc(F)c(F)c(F)c2)c(C(F)F)n1", "note": "[Fluxapyroxad, reference compound]", "values": [
      {"measurement": "solubility in water", "setting": "20° C.", "result": 3.8, "unit": "µg/mL"}
    ]}
  ]
}
